Earlier results, collected in US11017689B2, “Very low nicotine cigarette blended with very low THC cannabis” (priority 2018, dated 2021).

Assays:
[1] = test system: nicotinic acetylcholine receptors (nAChRs)
[2] = test system: nicotine self-administration; settings: rats
[3] = administered orally to rats
[4] = nicotine in tobacco smoke, inhaled

Structure (SMILES) | affinity for nicotinic acetylcholine receptors (nAChRs) [1] | dose-effect function on nicotine self-administration [2] | reduction of nicotine infusions per session ([2]; 2.0 mg/kg of anabasine) | increase in nicotine self-administration ([2]; pretreatment with 0.02 mg/kg anabasine) [%] | reduction of nicotine self-administration ([2]; pretreatment with 2.0 mg/kg anatabine) | elimination half-life relative to that of nicotine [3] [fold] | time from inhaling the smoke until nicotine reaches the brain [4]
c1cncc([C@@H]2CCCCN2)c1 [anabasine] | affinity | biphasic | over 50% | 25 |  |  | 
C1=CCC(c2cccnc2)NC1 (centres unmarked) [anatabine] | affinity |  |  |  | nearly half | 2 to 2.5 | 
CN1CCCC1c1cccnc1 (centres unmarked) [nicotine] |  |  |  |  |  |  | approximately ten
